Results from US20140005163A1 (NOVARTIS AG, priority 2010, published 2014).

Experiments:
[1] = tested on: PKB Ser473 phosphorylation in Rat1-myr-HA-p110 alpha cells; assay: Reverse protein array assay, PKB Ser473 phosphorylation in Rat1-myr-p110 alpha cells; assay type: cell-based; details: 0.5 h, pAkt Ser473, 30 minutes compound incubation, read-out: p-PKB IC50
How it was run: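 Compound exposure lasted 30 min in Rat1 cells bearing membrane-targeted HA-p110 isoforms, using 8 serial concentrations. Arrayed lysates, each spotted at four dilutions, gave relative fluorescence signals for phospho-Ser473 PKB.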

mTOR = target: T1, mTOR (Homo sapiens, UniProt P42345); assay: Biochemical assay for m-TOR by TR-FRET; details: 8 μM ATP, 400 nM GFP-4EBP1, 0.5 nM mTOR
T1 construct: purchased Invitrogen Corporation (Carlsbad/CA, USA) PV4753
T1 sequence (P42345 1360-2549 limits assumed): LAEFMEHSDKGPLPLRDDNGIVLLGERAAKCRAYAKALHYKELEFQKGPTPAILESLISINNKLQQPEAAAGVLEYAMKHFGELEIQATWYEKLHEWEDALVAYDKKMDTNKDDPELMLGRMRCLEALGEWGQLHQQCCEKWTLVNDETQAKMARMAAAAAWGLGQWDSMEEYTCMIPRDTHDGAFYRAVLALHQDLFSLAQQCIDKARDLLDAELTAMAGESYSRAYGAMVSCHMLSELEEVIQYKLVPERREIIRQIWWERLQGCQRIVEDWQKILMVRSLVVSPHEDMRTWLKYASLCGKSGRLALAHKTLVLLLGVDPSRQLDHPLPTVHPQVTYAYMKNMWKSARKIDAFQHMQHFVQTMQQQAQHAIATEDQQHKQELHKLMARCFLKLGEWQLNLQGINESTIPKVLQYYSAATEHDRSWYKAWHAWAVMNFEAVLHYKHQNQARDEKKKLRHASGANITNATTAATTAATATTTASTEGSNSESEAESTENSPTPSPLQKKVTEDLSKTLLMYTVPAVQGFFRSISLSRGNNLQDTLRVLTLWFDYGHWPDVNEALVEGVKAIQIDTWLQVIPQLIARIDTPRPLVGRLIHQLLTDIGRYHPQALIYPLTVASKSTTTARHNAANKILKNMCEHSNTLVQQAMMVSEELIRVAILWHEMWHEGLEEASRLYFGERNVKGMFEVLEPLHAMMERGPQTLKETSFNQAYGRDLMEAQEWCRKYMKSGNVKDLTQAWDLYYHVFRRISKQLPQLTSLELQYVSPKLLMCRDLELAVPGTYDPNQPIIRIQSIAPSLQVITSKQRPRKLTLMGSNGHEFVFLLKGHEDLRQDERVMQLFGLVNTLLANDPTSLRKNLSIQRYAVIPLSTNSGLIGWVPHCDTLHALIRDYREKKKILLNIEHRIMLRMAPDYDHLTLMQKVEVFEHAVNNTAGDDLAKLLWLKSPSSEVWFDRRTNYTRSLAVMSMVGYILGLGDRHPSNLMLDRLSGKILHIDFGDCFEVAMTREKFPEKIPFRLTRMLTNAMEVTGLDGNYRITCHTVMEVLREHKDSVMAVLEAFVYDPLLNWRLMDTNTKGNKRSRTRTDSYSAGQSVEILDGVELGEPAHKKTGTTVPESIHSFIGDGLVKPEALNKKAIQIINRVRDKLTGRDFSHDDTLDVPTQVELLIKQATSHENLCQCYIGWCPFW
How it was run: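 Enzyme 0.5 nM, GFP-4EBP1 400 nM, ATP 8 μM (all final); 50 mM HEPES pH 7.5, 10 mM MnCl2, 1 mM DTT; rt. Detection: Tb-α-p4EBP1 [pT46] 0.5 nM in EDTA, TR-FRET, 15 min. Reference compound on every plate, 16-point duplicate dilutions.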

PI3K beta = target: T2, PI3K beta (Homo sapiens, UniProt P42338); assay: PI3K beta kinase assay (Kinase-Glo luminescence); assay type: biochemical
T2 construct: for the full-length p110-b subunit are generated and fused by overlapping PCR; p85(iSH2) fusion partner (see partner chain) (N); His tag (C); made in house; host or cells: baculovirus; Tn5 (Trichoplusia ni) or TiniPro insect cells
T2 sequence (P42338 with tags, fused parts or gaps limits assumed): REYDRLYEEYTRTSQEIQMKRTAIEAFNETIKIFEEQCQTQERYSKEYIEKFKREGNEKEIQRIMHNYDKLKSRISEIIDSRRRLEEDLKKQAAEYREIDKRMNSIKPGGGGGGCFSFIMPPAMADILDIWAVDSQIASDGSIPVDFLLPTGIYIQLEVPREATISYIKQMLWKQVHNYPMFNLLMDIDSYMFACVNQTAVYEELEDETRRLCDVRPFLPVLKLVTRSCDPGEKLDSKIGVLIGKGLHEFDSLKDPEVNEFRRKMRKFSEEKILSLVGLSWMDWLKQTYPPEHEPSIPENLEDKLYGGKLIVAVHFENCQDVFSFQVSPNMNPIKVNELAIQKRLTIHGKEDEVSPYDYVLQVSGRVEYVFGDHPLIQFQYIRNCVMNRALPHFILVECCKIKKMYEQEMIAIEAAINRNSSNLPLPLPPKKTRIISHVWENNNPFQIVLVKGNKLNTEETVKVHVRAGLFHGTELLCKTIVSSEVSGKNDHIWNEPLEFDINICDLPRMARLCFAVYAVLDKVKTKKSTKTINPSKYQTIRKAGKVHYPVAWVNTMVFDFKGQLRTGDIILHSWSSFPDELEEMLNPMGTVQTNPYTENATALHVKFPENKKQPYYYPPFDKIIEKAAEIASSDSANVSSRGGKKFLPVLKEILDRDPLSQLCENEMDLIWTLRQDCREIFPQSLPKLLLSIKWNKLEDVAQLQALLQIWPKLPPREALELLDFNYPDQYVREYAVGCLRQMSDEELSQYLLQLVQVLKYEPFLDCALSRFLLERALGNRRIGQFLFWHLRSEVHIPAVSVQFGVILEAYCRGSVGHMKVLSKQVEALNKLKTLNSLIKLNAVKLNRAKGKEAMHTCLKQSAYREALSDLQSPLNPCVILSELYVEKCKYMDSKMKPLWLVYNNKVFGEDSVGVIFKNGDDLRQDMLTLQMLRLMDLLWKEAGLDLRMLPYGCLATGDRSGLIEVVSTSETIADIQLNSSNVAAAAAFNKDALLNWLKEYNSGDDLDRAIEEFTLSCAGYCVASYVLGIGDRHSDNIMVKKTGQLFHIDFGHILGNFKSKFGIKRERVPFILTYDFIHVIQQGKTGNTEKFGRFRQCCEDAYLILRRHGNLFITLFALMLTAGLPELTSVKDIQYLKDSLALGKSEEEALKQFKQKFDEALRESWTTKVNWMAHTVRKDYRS
How it was run: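 IC50 is derived by four-parameter logistic curve fitting of Kinase-Glo luminescence, which measures ATP left after a 60 min room-temperature reaction. Conditions are 25 nM His-tagged p85(iSH2)-p110β, 1 μM ATP and 10 μg/mL bovine liver phosphatidylinositol.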

CCOc1ccc(-c2ccc3ncc4[nH]c(=O)n(-c5cn(C)nc5C)c4c3c2)cn1 [Example 110, 1-(1,3-Dimethyl-1H-pyrazol-4-yl)-8-(6-ethoxy-pyridin-3-yl)-1,3-dihydro-imidazo[4,5-c]quinolin-2-one]
IC50 [1]: 67 nM
IC50 (mTOR): 14 nM
IC50 (PI3K beta): 137 nM

CNc1ccc(-c2ccc3ncc4c(c3c2)n(-c2cn(C)nc2C)c(=O)n4C)cn1 [Example 118.2, 1-(1,3-Dimethyl-1H-pyrazol-4-yl)-3-methyl-8-(6-methylamino-pyridin-3-yl)-1,3-dihydro-imidazo[4,5-c]quinolin-2-one]
IC50 [1]: < 5 nM
IC50 (mTOR): 4 nM
IC50 (PI3K beta): 82 nM

CCn1cc(-n2c(=O)n(C)c3cnc4ccc(-c5ccc(NC)nc5)cc4c32)c(C)n1 [Example 118.4, 1-(1-Ethyl-3-methyl-1H-pyrazol-4-yl)-3-methyl-8-(6-methylamino-pyridin-3-yl)-1,3-dihydro-imidazo[4,5-c]quinolin-2-one]
IC50 [1]: < 5 nM
IC50 (mTOR): 4 nM
IC50 (PI3K beta): 130 nM

Cc1nn(C)cc1-n1c(=O)n(C)c2cnc3ccc(-c4cncc(N(C)S(C)(=O)=O)c4)cc3c21 [Example 121, N-{5-[1-(1,3-Dimethyl-1H-pyrazol-4-yl)-3-methyl-2-oxo-2,3-dihydro-1H-imidazo[4,5-c]quinolin-8-yl]-pyridin-3-yl}-N-methyl-methanesulfonamide]
IC50 [1]: 254 nM
IC50 (mTOR): 91 nM
IC50 (PI3K beta): 93 nM

COc1ncc(-c2ccc3ncc4c(c3c2)n(-c2cn(C)nc2C)c(=O)n4C)cc1C(N)=O [Example 125.2, 5-[1-(1,3-Dimethyl-1H-pyrazol-4-yl)-3-methyl-2-oxo-2,3-dihydro-1H-imidazo[4,5-c]quinolin-8-yl]-2-methoxy-nicotinamide]
IC50 [1]: 82 nM
IC50 (mTOR): 10 nM
IC50 (PI3K beta): 93 nM

COc1ncc(-c2ccc3ncc4c(c3c2)n(-c2cn(C)nc2C)c(=O)n4C)cc1C#N [Example 132, 5-[1-(1,3-Dimethyl-1H-pyrazol-4-yl)-3-methyl-2-oxo-2,3-dihydro-1H-imidazo[4,5-c]quinolin-8-yl]-2-methoxy-nicotinonitrile]
IC50 [1]: 51 nM
IC50 (mTOR): 934 nM
IC50 (PI3K beta): 161 nM

CNc1ncc(-c2ccc3ncc4c(c3c2)n(-c2c(C)nn(C)c2C)c(=O)n4C)cc1F [Example 141.1, 8-(5-Fluoro-6-methylamino-pyridin-3-yl)-3-methyl-1-(1,3,5-trimethyl-1H-pyrazol-4-yl)-1,3-dihydro-imidazo[4,5-c]quinolin-2-one]
IC50 [1]: 150 nM
IC50 (mTOR): 447 nM
IC50 (PI3K beta): 469 nM

CNc1ncc(-c2ccc3ncc4c(c3c2)n(-c2cn(C)nc2C)c(=O)n4C)cc1F [Example 141.2, 1-(1,3-Dimethyl-1H-pyrazol-4-yl)-8-(5-fluoro-6-methylamino-pyridin-3-yl)-3-methyl-1,3-dihydro-imidazo[4,5-c]quinolin-2-one]
IC50 [1]: < 5 nM
IC50 (mTOR): 7 nM
IC50 (PI3K beta): 142 nM

Cc1nn(C)c(C)c1-n1c(=O)n(C)c2cnc3ccc(-c4cnc(N)c(F)c4)cc3c21 [Example 142.1, 8-(6-Amino-5-fluoro-pyridin-3-yl)-3-methyl-1-(1,3,5-trimethyl-1H-pyrazol-4-yl)-1,3-dihydro-imidazo[4,5-c]quinolin-2-one]
IC50 [1]: 157 nM
IC50 (mTOR): 481 nM
IC50 (PI3K beta): 201 nM

CNc1ncc(-c2ccc3ncc4c(c3c2)n(-c2c(C)nn(C)c2C)c(=O)n4C)cc1Cl [Example 146.4, 8-(5-Chloro-6-methylamino-pyridin-3-yl)-3-methyl-1-(1,3,5-trimethyl-1H-pyrazol-4-yl)-1,3-dihydro-imidazo[4,5-c]quinolin-2-one]
IC50 [1]: 70 nM
IC50 (mTOR): 309 nM
IC50 (PI3K beta): 176 nM

CNc1ncc(-c2ccc3ncc4c(c3c2)n(-c2cc(C)nn2C)c(=O)n4C)cc1Cl [Example 146.5, 8-(5-Chloro-6-methylamino-pyridin-3-yl)-1-(2,5-dimethyl-2H-pyrazol-3-yl)-3-methyl-1,3-dihydro-imidazo[4,5-c]quinolin-2-one]
IC50 [1]: 12 nM
IC50 (mTOR): 48 nM
IC50 (PI3K beta): 167 nM

Cc1noc(C)c1-n1c(=O)n(C)c2cnc3ccc(-c4cnc(N)c(Cl)c4)cc3c21 [Example 148.4, 8-(6-Amino-5-chloro-pyridin-3-yl)-1-(3,5-dimethyl-isoxazol-4-yl)-3-methyl-1,3-dihydro-imidazo[4,5-c]quinolin-2-one]
IC50 [1]: 151 nM
IC50 (mTOR): 678 nM
IC50 (PI3K beta): 95 nM

CNc1cc(-c2ccc3ncc4c(c3c2)n(-c2cn(C)nc2C)c(=O)n4C)cnc1F [Example 150.2, 1-(1,3-Dimethyl-1H-pyrazol-4-yl)-8-(6-fluoro-5-methylamino-pyridin-3-yl)-3-methyl-1,3-dihydro-imidazo[4,5-c]quinolin-2-one]
IC50 [1]: 7 nM
IC50 (mTOR): 8 nM
IC50 (PI3K beta): 12 nM

CCNc1cc(-c2ccc3ncc4c(c3c2)n(-c2c(C)nn(C)c2C)c(=O)n4C)cnc1F [Example 154.1, 8-(5-Ethylamino-6-fluoro-pyridin-3-yl)-3-methyl-1-(1,3,5-trimethyl-1H-pyrazol-4-yl)-1,3-dihydro-imidazo[4,5-c]quinolin-2-one]
IC50 [1]: 102 nM
IC50 (mTOR): 619 nM
IC50 (PI3K beta): 98 nM

Cc1ncc(-c2ccc3ncc4c(c3c2)n(-c2cn(C)nc2C)c(=O)n4C)cc1N(C)C [Example 164, 8-(5-Dimethylamino-6-methyl-pyridin-3-yl)-1-(1,3-dimethyl-1H-pyrazol-4-yl)-3-methyl-1,3-dihydro-imidazo[4,5-c]quinolin-2-one]
IC50 [1]: < 5 nM
IC50 (mTOR): < 3 nM
IC50 (PI3K beta): 11 nM

CCNc1ncc(-c2ccc3ncc4c(c3c2)n(-c2cn(C)nc2C)c(=O)n4C)cc1COCC [Example 167, 1-(1,3-Dimethyl-1H-pyrazol-4-yl)-8-(5-ethoxymethyl-6-ethylamino-pyridin-3-yl)-3-methyl-1,3-dihydro-imidazo[4,5-c]quinolin-2-one]
IC50 [1]: 35 nM
IC50 (mTOR): 58 nM
IC50 (PI3K beta): 84 nM

CCn1cc(-n2c(=O)n(C)c3cnc4ccc(-c5cnc(N)c(COC)c5)cc4c32)c(C)n1 [Example 168.2, 8-(6-Amino-5-methoxymethyl-pyridin-3-yl)-1-(1-ethyl-3-methyl-1H-pyrazol-4-yl)-3-methyl-1,3-dihydro-imidazo[4,5-c]quinolin-2-one]
IC50 [1]: 12 nM
IC50 (mTOR): 41 nM
IC50 (PI3K beta): 68 nM

Cc1ncc(-c2ccc3ncc4c(c3c2)n(-c2cn(C)nc2C)c(=O)n4C)cc1O [Example 185.1, 1-(1,3-Dimethyl-1H-pyrazol-4-yl)-8-(5-hydroxy-6-methyl-pyridin-3-yl)-3-methyl-1,3-dihydro-imidazo[4,5-c]quinolin-2-one]
IC50 [1]: 13 nM
IC50 (mTOR): < 3 nM
IC50 (PI3K beta): 9 nM

Cc1ncc(-c2ccc3ncc4c(c3c2)n(-c2cn(C)nc2C)c(=O)n4C)cc1OC(CF)CF [Example 189, 1-(1,3-Dimethyl-1H-pyrazol-4-yl)-8-[5-(2-fluoro-1-fluoromethyl-ethoxy)-6-methyl-pyridin-3-yl]-3-methyl-1,3-dihydro-imidazo[4,5-c]quinolin-2-one]
IC50 [1]: < 5 nM
IC50 (mTOR): 17 nM
IC50 (PI3K beta): 5 nM

Cc1nn(C)cc1-n1c(=O)n(C)c2cnc3ccc(-c4cnc(CO)c(OC(C)C)c4)cc3c21 [Example 190, 1-(1,3-Dimethyl-1H-pyrazol-4-yl)-8-(6-hydroxymethyl-5-isopropoxy-pyridin-3-yl)-3-methyl-1,3-dihydro-imidazo[4,5-c]quinolin-2-one]
IC50 [1]: 19 nM
IC50 (mTOR): 37 nM
IC50 (PI3K beta): 36 nM
